# In patent publication US20250295639A1, “METHODS FOR TREATING HEART DISEASES” (Cytokinetics, Incorporated, priority 2024, published 2025):
# Columns and labels:
# [1] = system: patients with symptomatic oHCM; assay: SEQUOIA-HCM: cardiac biomarkers NT-proBNP and hs-cTnI; assay type: in vivo, human
# Text: A further exploratory objective of this trial was to evaluate the effect of aficamten on biomarker levels, as determined by changes from baseline values in NT-pro-BNP, hs-cardiac-TnI and other biomarkers through Week 24. Cardiac biomarkers. Aficamten treatment led to an immediate and significant reduction in both NT-proBNP and hs-cTnI, with substantial lowering of both biomarkers by week 2. […] Biomarker lowering persisted to week 24 when the relative reduction from baseline was-80% (95% CI-83%, −77%, p<0.001) in NT-proBNP and −43% (−49%, […], p<0.001) in hs-cTnI. […] Serum levels of NT-proBNP decreased from baseline to week 24 from 735 (604, 894) ng/L to 143 (120, 171) ng/L in patients receiving aficamten and remained unchanged from 710 (587, 859) ng/L to 717 (596, 863) ng/L in those receiving placebo, while hs-troponin decreased from 17.1 (14.1, 20.8) ng/L to 9.5 (8.0, 11.3) ng/L with aficamten and remained unchanged from 16.6 (13.3, 20.7) to 16.5 (13.7, 19.9) ng/L in placebo (P<0.001 for both comparisons compared to placebo). […] In contrast hs-cTnI reduction reflected 3% (−18%, 30%) of aficamten's effect on pVO2.
# [2] = system: patients with nonobstructive hypertrophic cardiomyopathy (nHCM); assay: FOREST-HCM open-label extension, 36-week analysis in nHCM; assay type: in vivo, human
# Text: An open-label extension clinical trial of aficamten in patients with symptomatic oHCM was initiated and was described as Example 3b in WO 2024/031016 and in U.S. Patent Publication US-2024-0115554-A1, the disclosures of which are incorporated by reference herein. The treatment duration is anticipated to be multiple years. The primary objective of the trial is to determine the safety and tolerability of aficamten over a 5-year period. Safety and efficacy of aficamten in patients with nonobstructive hypertrophic cardiomyopathy (nHCM). Thirty-four patients were enrolled (mean age±SD 57.2±15.3 years, 62% women). At baseline, patients were symptomatic (41% NYHA class III) with median (IQR) NT-proBNP and hs-cTnI of […] (735, 1735) and 24.9 ng/L (9.7, 46.4), respectively. By the end of the titration period (week 6), 3 (8.8%), 3 (8.8%), 6 (17.6%) and 22 (64.7%) patients received doses of 5, 10, 15, and 20 mg daily, respectively. At baseline, LVEF (mean±SD) was 70%±6.1; over 36-weeks, there was a modest reduction of 4.3%±5.2 (p<0.0001). NYHA class improved by ≥1 class in 27 (79.4%) patients, including 20 (58.8%) were asymptomatic (NYHA class I) by week 36. The mean KCCQ-CSS improved by 13.8±12.52 points relative to baseline, with 24/31 (77.4%) patients reporting improvements of ≥5 points. […] Most patients achieved the highest available dose while maintaining normal LVEF.
smiles,measurement,setting,value
"CCc1nc(-c2ccc3c(c2)CC[C@H]3NC(=O)c2cnn(C)c2)no1 [aficamten, (R)—N-(5-(5-ethyl-1,2,4-oxadiazol-3-yl)-2,3-dihydro-1H-inden-1-yl)-1-methyl-1H-pyrazole-4-carboxamide]",hs-cTnI relative reduction from baseline,[1]; Week 24,−43%
same,patients with 50% relative reduction in hs-troponin,"[1]; aficamten group, week 24",31%
same,patients with ≥50% reduction in NT-proBNP relative to baseline,"[1]; aficamten group, week 24",84%
same,hs-troponin level,"[1]; aficamten, week 24, baseline 17.1 (14.1, 20.8)","9.5 (8.0, 11.3) ng/L"
same,serum level of NT-proBNP,"[1]; aficamten, week 24, baseline 735 (604, 894)","143 (120, 171) ng/L"
same,NT-proBNP and hs-cTnI concentrations after cessation of aficamten,[1]; after the treatment period,returning to baseline values
same,NT-proBNP reduction,[1]; week 8,79%
same,hs-cTnI reduction,[1]; week 8,41%
same,patients reporting KCCQ-CSS improvements of ≥5 points,[2]; 24/31 patients,77.4%
same,patients asymptomatic (NYHA class I),[2]; by week 36,58.8%
same,drug discontinuations due to adverse events,[2]; in vivo,no drug discontinuations due to adverse events
same,patients with LVEF<50%,[2]; in vivo,5.9%
same,reduction in LVEF (mean±SD),[2]; over 36-weeks,4.3%
same,tolerability,[2]; over the study period,well tolerated
same,NT-proBNP median change from baseline,[2]; week 36,-665.5 pg/mL
same,hs-cTnI median change from baseline,[2]; week 36,-2.7 ng/L
same,mean KCCQ-CSS improvement relative to baseline,[2]; week 36,13.8±12.52 points
same,patients with NYHA class improved by ≥1 class,[2]; week 36,79.4%
